The values below come from publication PMC6711994 (Scientific Reports, 2019).

The target of one assay is T1, lsBSH (Ligilactobacillus salivarius, UniProt J7H3P9).
T1 construct: recombinant from E. coli JL885 (pBSH vector), purified; initiator Met removed, N-terminal nucleophile Cys2; homotetramer; Cys2 oxidised (sulfonic, OCS) in the crystal
Kind of assay: X-ray crystal structure, […] Å, crystal soaking. Type of assay: binding. As to conditions: CA formed from soaked GCA; Cys2 oxidised (sulfonic form); active site of chains B, C, D, E, G and H.

Assay [1] has as its target bile salt hydrolase from Lactobacillus salivarius (Lactobacillus salivarius NRRL B-30514). Kind of assay: crystal structure; apo lsBSH crystals (20% PEG 3,350, 0.2 M KH2PO4 pH 4.8, 20 °C) soaked with GCA for 4 h; space group P21; two tetramers in one asymmetric unit.

T1 sequence (J7H3P9 entry or part of it): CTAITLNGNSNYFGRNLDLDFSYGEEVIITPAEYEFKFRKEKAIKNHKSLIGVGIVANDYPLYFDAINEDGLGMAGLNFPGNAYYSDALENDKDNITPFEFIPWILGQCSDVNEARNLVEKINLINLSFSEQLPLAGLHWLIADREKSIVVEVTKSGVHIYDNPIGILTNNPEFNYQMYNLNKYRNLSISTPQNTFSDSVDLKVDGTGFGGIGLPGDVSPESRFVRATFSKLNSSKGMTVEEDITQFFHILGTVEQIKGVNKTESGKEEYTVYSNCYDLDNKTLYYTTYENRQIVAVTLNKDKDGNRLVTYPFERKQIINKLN

For `C[C@H](CCC(=O)O)[C@H]1CC[C@H]2[C@@H]3[C@H](O)C[C@@H]4C[C@H](O)CC[C@]4(C)[C@H]3C[C@H](O)[C@]12C` [CA, cholic acid], the “X-ray crystal structure, 2.10 Å, crystal soaking” value at lsBSH was “The lsBSH monomers were obtained bound to substrate GCA or product CA”.

With “bile salt hydrolase from Lactobacillus salivarius (enzyme)”, the stoichiometry N (commonly the number of molecules, sites or subunits per partner or assembly) in assay [1] was 4.
